Results from the kinase profiling compilation of Christmann-Franck et al. (2016).
Blank lines part the entries; values can stand above or below the compound they belong to.

Legend:
Experiment in all cases: radiometric filter-binding kinase assay
[1] = molecular target: BRSK2 (human) (UniProt Q8IWQ3)
[2] = molecular target: CAMKK2 (human) (UniProt Q96RR4)
[3] = molecular target: DYRK1A (human) (UniProt Q13627)
[4] = molecular target: EEF2K (human) (UniProt O00418)
[5] = molecular target: FGFR1 (human) (UniProt P11362)
[6] = molecular target: GSK3B (human) (UniProt P49841)
[7] = molecular target: IGF1R (human) (UniProt P08069)
[8] = molecular target: IKBKE (human) (UniProt Q14164)
[9] = molecular target: MAPK12 (human) (UniProt P53778)
[10] = molecular target: MAPK13 (human) (UniProt O15264)
[11] = molecular target: MAPK3 (human) (UniProt P27361)
[12] = molecular target: MAPK9 (human) (UniProt P45984)
[13] = molecular target: MAPKAPK2 (human) (UniProt P49137)
[14] = molecular target: MAPKAPK5 (human) (UniProt Q8IW41)
[15] = molecular target: MELK (human) (UniProt Q14680)
[16] = molecular target: MKNK1 (human) (UniProt Q9BUB5)
[17] = molecular target: PAK7 (human) (UniProt Q9P286)
[18] = molecular target: PHKG1 (human) (UniProt Q16816)
[19] = molecular target: PIM1 (human) (UniProt P11309)
[20] = molecular target: PIM2 (human) (UniProt Q9P1W9)
[21] = molecular target: PIM3 (human) (UniProt Q86V86)
[22] = tested on: PRKAA1 or PRKAA2 (rat); settings: accession and sequence are those of the human protein
[23] = molecular target: PRKACA (human) (UniProt P17612)
[24] = molecular target: PRKCZ (human) (UniProt Q05513)
[25] = tested on: SGK1 (human), O00141 [S422D]
[26] = molecular target: STK3 (human) (UniProt Q13188)
[27] = molecular target: SYK (human) (UniProt P43405)

Sequence of BRSK2 (human) (Q8IWQ3 whole entry, looked up): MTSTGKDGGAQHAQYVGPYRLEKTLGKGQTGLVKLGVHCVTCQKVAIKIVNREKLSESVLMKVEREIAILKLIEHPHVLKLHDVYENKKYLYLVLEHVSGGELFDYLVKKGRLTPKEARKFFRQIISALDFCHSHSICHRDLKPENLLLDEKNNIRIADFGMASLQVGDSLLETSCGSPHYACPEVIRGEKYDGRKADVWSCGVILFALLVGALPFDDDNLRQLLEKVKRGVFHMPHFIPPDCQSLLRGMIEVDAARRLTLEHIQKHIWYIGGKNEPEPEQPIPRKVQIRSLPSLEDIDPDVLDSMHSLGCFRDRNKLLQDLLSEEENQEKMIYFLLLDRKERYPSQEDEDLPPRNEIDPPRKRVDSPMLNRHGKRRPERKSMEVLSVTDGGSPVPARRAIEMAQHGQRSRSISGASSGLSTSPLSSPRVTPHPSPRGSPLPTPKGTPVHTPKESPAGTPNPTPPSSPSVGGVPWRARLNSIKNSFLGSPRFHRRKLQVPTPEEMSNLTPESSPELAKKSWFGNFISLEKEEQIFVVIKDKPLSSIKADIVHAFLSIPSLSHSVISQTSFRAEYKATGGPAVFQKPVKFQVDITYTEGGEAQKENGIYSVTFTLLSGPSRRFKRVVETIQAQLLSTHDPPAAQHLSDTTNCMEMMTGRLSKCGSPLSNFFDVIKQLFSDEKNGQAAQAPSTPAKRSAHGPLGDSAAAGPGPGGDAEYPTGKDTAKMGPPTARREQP
Sequence of MAPK12 (human) (P53778 whole entry, looked up): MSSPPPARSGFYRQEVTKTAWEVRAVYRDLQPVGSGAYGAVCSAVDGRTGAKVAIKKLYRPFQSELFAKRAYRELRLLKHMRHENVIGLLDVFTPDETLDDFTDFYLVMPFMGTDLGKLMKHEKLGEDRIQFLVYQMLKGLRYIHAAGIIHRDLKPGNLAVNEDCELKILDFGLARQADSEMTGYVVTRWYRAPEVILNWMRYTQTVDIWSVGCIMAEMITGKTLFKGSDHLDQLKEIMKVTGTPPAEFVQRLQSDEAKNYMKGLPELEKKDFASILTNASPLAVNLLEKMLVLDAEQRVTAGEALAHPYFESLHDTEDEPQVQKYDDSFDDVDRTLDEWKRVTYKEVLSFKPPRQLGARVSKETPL
Sequence of PAK7 (human) (Q9P286 whole entry, looked up): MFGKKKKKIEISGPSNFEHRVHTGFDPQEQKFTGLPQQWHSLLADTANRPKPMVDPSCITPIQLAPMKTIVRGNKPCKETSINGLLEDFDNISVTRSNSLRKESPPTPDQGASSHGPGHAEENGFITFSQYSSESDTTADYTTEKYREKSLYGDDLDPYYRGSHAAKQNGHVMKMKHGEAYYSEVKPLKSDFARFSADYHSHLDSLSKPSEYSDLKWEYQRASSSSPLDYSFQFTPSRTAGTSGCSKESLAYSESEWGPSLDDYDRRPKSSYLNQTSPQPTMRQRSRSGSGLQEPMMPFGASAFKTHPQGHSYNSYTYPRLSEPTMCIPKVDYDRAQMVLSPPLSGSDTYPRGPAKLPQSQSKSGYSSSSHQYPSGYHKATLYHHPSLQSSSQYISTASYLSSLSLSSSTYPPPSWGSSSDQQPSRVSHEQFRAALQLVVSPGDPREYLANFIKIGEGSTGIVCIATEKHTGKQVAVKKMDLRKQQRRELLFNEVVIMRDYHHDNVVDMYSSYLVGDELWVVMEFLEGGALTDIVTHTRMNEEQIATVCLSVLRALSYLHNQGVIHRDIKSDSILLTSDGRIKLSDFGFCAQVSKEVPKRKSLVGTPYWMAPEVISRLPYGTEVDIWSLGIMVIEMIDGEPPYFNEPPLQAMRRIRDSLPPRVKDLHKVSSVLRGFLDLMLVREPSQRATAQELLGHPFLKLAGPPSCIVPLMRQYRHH
Sequence of MAPKAPK2 (human) (P49137 whole entry, looked up): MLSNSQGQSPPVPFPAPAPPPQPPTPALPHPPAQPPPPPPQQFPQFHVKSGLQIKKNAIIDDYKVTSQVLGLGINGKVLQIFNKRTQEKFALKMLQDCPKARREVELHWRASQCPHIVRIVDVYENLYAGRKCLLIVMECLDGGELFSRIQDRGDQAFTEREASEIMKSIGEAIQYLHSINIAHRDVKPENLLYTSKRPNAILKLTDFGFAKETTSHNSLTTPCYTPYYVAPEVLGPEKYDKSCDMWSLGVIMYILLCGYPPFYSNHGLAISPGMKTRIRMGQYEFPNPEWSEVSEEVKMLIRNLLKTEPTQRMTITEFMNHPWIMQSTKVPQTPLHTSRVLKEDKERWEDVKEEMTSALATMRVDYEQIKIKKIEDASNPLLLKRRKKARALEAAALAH
Sequence of CAMKK2 (human) (Q96RR4 whole entry, looked up): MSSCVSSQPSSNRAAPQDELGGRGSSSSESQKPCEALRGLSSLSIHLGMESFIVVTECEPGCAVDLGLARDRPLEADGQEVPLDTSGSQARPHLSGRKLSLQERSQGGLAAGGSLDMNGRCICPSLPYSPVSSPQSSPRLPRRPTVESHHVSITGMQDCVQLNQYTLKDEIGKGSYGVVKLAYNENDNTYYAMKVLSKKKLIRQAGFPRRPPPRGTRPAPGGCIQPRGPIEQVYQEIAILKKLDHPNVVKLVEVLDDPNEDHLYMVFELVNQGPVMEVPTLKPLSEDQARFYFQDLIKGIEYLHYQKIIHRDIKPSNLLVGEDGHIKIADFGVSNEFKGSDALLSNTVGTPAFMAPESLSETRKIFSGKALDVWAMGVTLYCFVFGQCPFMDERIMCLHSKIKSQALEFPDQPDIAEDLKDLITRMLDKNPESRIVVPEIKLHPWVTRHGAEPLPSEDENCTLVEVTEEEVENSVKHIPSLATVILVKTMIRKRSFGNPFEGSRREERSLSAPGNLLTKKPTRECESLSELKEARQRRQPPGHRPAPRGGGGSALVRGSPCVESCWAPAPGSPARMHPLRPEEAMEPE
Sequence of STK3 (human) (Q13188 whole entry, looked up): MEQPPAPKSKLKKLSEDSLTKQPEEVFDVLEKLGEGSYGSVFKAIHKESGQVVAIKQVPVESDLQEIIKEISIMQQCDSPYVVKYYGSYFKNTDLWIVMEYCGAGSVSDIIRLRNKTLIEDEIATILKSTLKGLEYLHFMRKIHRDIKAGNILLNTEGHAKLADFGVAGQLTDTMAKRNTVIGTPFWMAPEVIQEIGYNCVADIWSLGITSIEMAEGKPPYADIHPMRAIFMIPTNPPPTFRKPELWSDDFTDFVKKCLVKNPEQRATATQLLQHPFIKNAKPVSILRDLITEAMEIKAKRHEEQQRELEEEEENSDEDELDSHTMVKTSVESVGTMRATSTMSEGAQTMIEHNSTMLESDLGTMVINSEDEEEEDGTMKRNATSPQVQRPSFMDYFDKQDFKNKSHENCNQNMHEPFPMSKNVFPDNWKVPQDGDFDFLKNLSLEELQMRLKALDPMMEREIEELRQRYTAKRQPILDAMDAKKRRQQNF
Sequence of FGFR1 (human) (P11362 whole entry, looked up): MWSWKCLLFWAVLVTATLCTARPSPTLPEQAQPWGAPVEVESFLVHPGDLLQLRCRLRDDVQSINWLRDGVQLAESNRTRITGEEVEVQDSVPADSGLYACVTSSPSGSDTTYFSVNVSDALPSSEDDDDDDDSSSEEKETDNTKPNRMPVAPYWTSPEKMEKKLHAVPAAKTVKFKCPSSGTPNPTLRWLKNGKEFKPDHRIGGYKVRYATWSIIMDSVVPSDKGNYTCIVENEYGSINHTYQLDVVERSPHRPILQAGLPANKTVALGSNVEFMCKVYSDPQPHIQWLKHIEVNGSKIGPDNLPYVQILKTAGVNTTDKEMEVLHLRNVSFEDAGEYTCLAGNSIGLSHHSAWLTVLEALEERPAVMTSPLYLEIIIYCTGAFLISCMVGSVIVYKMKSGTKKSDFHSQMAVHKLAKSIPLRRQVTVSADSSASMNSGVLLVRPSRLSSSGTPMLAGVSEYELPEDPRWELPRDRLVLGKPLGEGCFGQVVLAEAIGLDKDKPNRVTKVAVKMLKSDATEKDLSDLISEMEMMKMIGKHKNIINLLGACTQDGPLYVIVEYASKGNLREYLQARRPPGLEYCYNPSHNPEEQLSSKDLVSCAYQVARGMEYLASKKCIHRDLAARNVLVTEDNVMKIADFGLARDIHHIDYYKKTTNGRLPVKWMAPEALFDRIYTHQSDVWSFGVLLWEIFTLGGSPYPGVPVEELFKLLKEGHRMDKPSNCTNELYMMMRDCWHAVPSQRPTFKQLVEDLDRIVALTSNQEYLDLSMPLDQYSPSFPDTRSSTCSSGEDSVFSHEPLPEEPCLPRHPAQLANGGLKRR
Sequence of MAPK9 (human) (P45984 whole entry, looked up): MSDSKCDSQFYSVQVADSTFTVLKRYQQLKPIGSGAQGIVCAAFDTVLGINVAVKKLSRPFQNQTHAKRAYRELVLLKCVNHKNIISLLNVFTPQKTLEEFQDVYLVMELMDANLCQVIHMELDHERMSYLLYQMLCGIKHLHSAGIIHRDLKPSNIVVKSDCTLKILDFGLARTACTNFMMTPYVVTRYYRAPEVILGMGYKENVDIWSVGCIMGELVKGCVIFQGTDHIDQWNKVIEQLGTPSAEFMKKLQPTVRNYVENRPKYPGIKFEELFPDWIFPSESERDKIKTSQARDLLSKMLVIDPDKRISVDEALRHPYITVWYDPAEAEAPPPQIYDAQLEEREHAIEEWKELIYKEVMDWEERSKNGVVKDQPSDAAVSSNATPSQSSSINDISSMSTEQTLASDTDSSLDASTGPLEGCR
Sequence of MKNK1 (human) (Q9BUB5 whole entry, looked up): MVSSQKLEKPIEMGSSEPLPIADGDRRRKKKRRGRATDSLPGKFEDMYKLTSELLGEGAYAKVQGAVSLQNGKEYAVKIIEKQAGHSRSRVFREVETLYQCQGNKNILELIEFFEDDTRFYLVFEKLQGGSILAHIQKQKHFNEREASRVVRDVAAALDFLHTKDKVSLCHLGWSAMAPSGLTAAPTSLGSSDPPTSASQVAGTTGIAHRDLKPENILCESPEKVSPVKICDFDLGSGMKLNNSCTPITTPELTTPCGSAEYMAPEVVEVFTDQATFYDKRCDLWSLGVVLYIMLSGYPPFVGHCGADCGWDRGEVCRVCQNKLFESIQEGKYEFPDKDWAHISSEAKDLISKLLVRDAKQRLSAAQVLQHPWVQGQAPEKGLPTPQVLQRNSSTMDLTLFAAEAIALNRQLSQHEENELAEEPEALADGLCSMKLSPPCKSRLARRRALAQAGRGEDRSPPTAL

residual activity ([1]; compound 1.0 µM): 79%
residual activity ([1]; compound 10.0 µM): 94%
residual activity ([2]; compound 1.0 µM): 79%
residual activity ([2]; compound 10.0 µM): 95%
residual activity ([3]; compound 1.0 µM): 85%
residual activity ([3]; compound 10.0 µM): 92%
residual activity ([4]; compound 1.0 µM): 75%
residual activity ([4]; compound 10.0 µM): 85%
residual activity ([5]; compound 1.0 µM): 83%
residual activity ([5]; compound 10.0 µM): 80%
residual activity ([6]; compound 1.0 µM): 99%
residual activity ([6]; compound 10.0 µM): 92%
residual activity ([7]; compound 1.0 µM): 113%
residual activity ([7]; compound 10.0 µM): 100%
residual activity ([8]; compound 1.0 µM): 84%
residual activity ([8]; compound 10.0 µM): 93%
residual activity ([9]; compound 1.0 µM): 103%
residual activity ([9]; compound 10.0 µM): 96%
residual activity ([10]; compound 1.0 µM): 94%
residual activity ([10]; compound 10.0 µM): 98%
residual activity ([11]; compound 1.0 µM): 107%
residual activity ([11]; compound 10.0 µM): 82%
residual activity ([12]; compound 1.0 µM): 91%
residual activity ([12]; compound 10.0 µM): 95%
residual activity ([13]; compound 1.0 µM): 72%
residual activity ([13]; compound 10.0 µM): 96%
residual activity ([14]; compound 1.0 µM): 89%
residual activity ([14]; compound 10.0 µM): 100%
residual activity ([15]; compound 1.0 µM): 84%
residual activity ([15]; compound 10.0 µM): 100%
residual activity ([16]; compound 1.0 µM): 85%
residual activity ([17]; compound 1.0 µM): 97%
residual activity ([17]; compound 10.0 µM): 108%
residual activity ([18]; compound 1.0 µM): 95%
residual activity ([18]; compound 10.0 µM): 96%
residual activity ([19]; compound 1.0 µM): 89%
residual activity ([19]; compound 10.0 µM): 93%
residual activity ([20]; compound 1.0 µM): 97%
residual activity ([20]; compound 10.0 µM): 86%
residual activity ([21]; compound 1.0 µM): 90%
residual activity ([21]; compound 10.0 µM): 95%
residual activity ([22]; compound 1.0 µM): 102%
residual activity ([22]; compound 10.0 µM): 95%
residual activity ([23]; compound 1.0 µM): 80%
residual activity ([23]; compound 10.0 µM): 95%
residual activity ([24]; compound 1.0 µM): 77%
residual activity ([24]; compound 10.0 µM): 83%
residual activity ([25]; compound 1.0 µM): 87%
residual activity ([25]; compound 10.0 µM): 96%
residual activity ([26]; compound 1.0 µM): 99%
residual activity ([26]; compound 10.0 µM): 102%
residual activity ([27]; compound 1.0 µM): 92%
residual activity ([27]; compound 10.0 µM): 116%
Compound: O=C1NC(=S)N[C@@H]1Cc1c[nH]c2ccccc12

residual activity ([1]; compound 0.001 µM): 59%
residual activity ([1]; compound 0.01 µM): 21%
residual activity ([1]; compound 0.1 µM): 12%
residual activity ([2]; compound 0.001 µM): 101%
residual activity ([2]; compound 0.01 µM): 90%
residual activity ([2]; compound 0.1 µM): 60%
residual activity ([3]; compound 0.001 µM): 110%
residual activity ([3]; compound 0.01 µM): 91%
residual activity ([3]; compound 0.1 µM): 67%
residual activity ([4]; compound 0.01 µM): 101%
residual activity ([4]; compound 0.1 µM): 106%
residual activity ([5]; compound 0.001 µM): 96%
residual activity ([5]; compound 0.01 µM): 61%
residual activity ([5]; compound 0.1 µM): 18%
residual activity ([6]; compound 0.01 µM): 92%
residual activity ([6]; compound 0.1 µM): 49%
residual activity ([7]; compound 0.1 µM): 94%
residual activity ([8]; compound 0.001 µM): 85%
residual activity ([8]; compound 0.01 µM): 84%
residual activity ([8]; compound 0.1 µM): 69%
residual activity ([9]; compound 0.001 µM): 89%
residual activity ([9]; compound 0.01 µM): 87%
residual activity ([9]; compound 0.1 µM): 82%
residual activity ([10]; compound 0.001 µM): 96%
residual activity ([10]; compound 0.01 µM): 89%
residual activity ([10]; compound 0.1 µM): 86%
residual activity ([11]; compound 0.001 µM): 97%
residual activity ([11]; compound 0.01 µM): 89%
residual activity ([11]; compound 0.1 µM): 82%
residual activity ([12]; compound 0.01 µM): 123%
residual activity ([12]; compound 0.1 µM): 118%
residual activity ([13]; compound 0.001 µM): 98%
residual activity ([13]; compound 0.01 µM): 86%
residual activity ([14]; compound 0.001 µM): 100%
residual activity ([14]; compound 0.01 µM): 90%
residual activity ([14]; compound 0.1 µM): 94%
residual activity ([15]; compound 0.001 µM): 86%
residual activity ([15]; compound 0.01 µM): 47%
residual activity ([15]; compound 0.1 µM): 9%
residual activity ([16]; compound 0.001 µM): 92%
residual activity ([16]; compound 0.01 µM): 87%
residual activity ([16]; compound 0.1 µM): 82%
residual activity ([17]; compound 0.001 µM): 84%
residual activity ([17]; compound 0.1 µM): 78%
residual activity ([18]; compound 0.001 µM): 97%
residual activity ([18]; compound 0.01 µM): 66%
residual activity ([18]; compound 0.1 µM): 18%
residual activity ([19]; compound 0.001 µM): 97%
residual activity ([19]; compound 0.01 µM): 98%
residual activity ([19]; compound 0.1 µM): 69%
residual activity ([20]; compound 0.01 µM): 92%
residual activity ([20]; compound 0.1 µM): 65%
residual activity ([21]; compound 0.001 µM): 96%
residual activity ([21]; compound 0.01 µM): 73%
residual activity ([21]; compound 0.1 µM): 25%
residual activity ([22]; compound 0.001 µM): 62%
residual activity ([22]; compound 0.01 µM): 25%
residual activity ([22]; compound 0.1 µM): 7%
residual activity ([23]; compound 0.001 µM): 92%
residual activity ([23]; compound 0.01 µM): 87%
residual activity ([23]; compound 0.1 µM): 81%
residual activity ([24]; compound 0.001 µM): 78%
residual activity ([24]; compound 0.01 µM): 84%
residual activity ([24]; compound 0.1 µM): 83%
residual activity ([25]; compound 0.001 µM): 98%
residual activity ([25]; compound 0.01 µM): 86%
residual activity ([25]; compound 0.1 µM): 58%
residual activity ([26]; compound 0.001 µM): 83%
residual activity ([26]; compound 0.01 µM): 36%
residual activity ([26]; compound 0.1 µM): 10%
residual activity ([27]; compound 0.001 µM): 100%
residual activity ([27]; compound 0.01 µM): 104%
residual activity ([27]; compound 0.1 µM): 97%
Compound: C/C(=C1/C(=O)Nc2ccc(NC(N)=O)cc21)c1ccc[nH]1
